From patent US7618990B2, “Oxazolidone derivatives as PR modulators” (Wyeth, priority 2006, dated 2009) come the findings set out here.

Data set [1] has as its target T1, progesterone receptor (PR) (Homo sapiens, UniProt P06401).
T1 construct: in live, intact (whole) cells using the human breast carcinoma T47D cell line; endogenous in cells; host or cells: T47D human breast carcinoma cells
T1 sequence (P06401 1-933): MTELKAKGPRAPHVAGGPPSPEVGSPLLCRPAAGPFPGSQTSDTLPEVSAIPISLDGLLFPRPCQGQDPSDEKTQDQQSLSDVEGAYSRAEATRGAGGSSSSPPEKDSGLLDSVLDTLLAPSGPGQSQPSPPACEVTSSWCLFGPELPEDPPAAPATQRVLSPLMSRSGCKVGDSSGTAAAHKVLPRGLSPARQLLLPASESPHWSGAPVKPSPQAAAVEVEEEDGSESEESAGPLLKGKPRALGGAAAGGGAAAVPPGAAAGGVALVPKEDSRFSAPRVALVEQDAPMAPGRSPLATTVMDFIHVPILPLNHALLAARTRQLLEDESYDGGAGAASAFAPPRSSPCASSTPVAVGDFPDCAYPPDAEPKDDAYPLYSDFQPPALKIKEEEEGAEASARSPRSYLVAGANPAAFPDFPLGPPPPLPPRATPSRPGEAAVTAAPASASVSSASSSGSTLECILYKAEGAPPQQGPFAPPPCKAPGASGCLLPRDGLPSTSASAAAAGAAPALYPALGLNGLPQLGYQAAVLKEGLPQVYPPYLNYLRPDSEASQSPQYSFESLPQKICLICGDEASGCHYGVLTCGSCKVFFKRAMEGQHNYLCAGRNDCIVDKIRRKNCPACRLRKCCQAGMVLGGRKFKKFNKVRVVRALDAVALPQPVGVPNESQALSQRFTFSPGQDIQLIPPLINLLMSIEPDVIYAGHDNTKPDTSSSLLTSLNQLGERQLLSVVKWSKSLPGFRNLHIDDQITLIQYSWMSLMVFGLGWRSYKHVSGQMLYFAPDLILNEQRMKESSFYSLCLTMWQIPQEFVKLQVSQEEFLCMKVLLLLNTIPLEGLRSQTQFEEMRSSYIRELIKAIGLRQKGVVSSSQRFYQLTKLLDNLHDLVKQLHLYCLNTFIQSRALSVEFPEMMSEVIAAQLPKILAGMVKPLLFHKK
As to the kind of experiment: Progesterone receptor whole cell competition binding assay using T47D cells. Conditions: intact T47D cells, 3 nM 3H-progesterone, 3 h at 37° C. The procedure: (2) Progesterone Receptor Whole Cell Competition Binding Assay Using T47D Cells
PURPOSE: To evaluate the progesterone receptor (PR) binding activity of progestins or antiprogestins in live, intact (whole) cells using the human breast carcinoma T47D cell line and ^3H-progesterone as the labeled ligand.
Culture Medium: • 5% RC: phenol red free DMEM:F12 (1:1) (GIBCO, BRL) supplemented with 5% (v/v) charcoal stripped fetal bovine serum (not heat-inactivated), 100 U/mL penicillin, 100 μg/mL streptomycin, and 2 mM the GlutaMax™ reagent (GIBCO, BRL). • 10% RC: Same as above supplemented with 10% (v/v) FBS. • ^3H-Progesterone: Perkin Elmer Life Science, cat# NET-381 (typically around 102 Ci/mmol)
T47D cells were maintained in 10% RC media at 37° C. in a 5% CO2/humidified atmosphere and were split twice weekly for proper response. Cells were plated in 10% RC the day before binding assay at 50,000 cells per well in the white, clear bottom plates purchased through VWR or Perkin Elmer.
Cells plated the day prior to the assay in white clear bottom plates were used. A master compound plate was set up containing control and test compounds at 20× final desired concentration for the competition binding. A typical dose range of 20× concentrations were (in nM); 200,000; 20,000; 6000; 2000; 600; 200; 20; and 2. Final concentrations were (in nM); 10,000; 1000; 300; 100; 30; 10; 1; 0.1. Control compounds were typically run 10-fold lower than this and include a 0, or vehicle, control well. A stock of 60 nM ^3H-progesterone (20×) were also prepared at a volume needed of 10 μL per well.
Media on cells were replaced with 180 μL of 5% RC. Ten microliters (10 μL) of 60 nM ^3H-progesterone (for final concentration of 3 nM) was added immediately, followed by 10 μL of 20× test or control compounds. Compounds were incubated for 3 h at 37° C. (A time course study found no difference between 2 and 4 h incubation.)
Following incubation, media was carefully removed and cells were washed 3× with 200 μL 5% RC each wash. Fifty microliters of liquid scintillation cocktail was added and the plates were shaken vigorously for a minimum of 15 min. Plates were read on the Wallac Microbeta® 1450 plate reader.
Square root-transformed data were used for analysis of variance and calculation of IC50. SAS software (SAS Institute, Inc.) was used for all the statistical analysis.
Progesterone was used as a reference progestin and RU486 as a reference antiprogestin.

In data set [2] the test system is alkaline phosphatase activity in T47D cells. The data set can be described thus: Effects of progestins and antiprogestins on alkaline phosphatase activity in T47D cells (antagonist mode). The class given is cell-based. Conditions: Homo sapiens, in the presence of 1 nM progesterone, read-out: T47D Alkaline Phosphatase Activity IC50 (nM) or % inhibition; for IC50: 24 h.

SMILES strings stand for the structures.

By Ki is commonly meant the equilibrium dissociation constant of an inhibitor or competing ligand from its target. As usually defined, the IC50 is the concentration that inhibits the measured activity by half. As usually defined, the melting point is the temperature, or range, at which the solid turns liquid. `O=C1OC[C@@H](CF)N1c1nc(-c2ccc(Br)cc2)cs1` [Example 73, (4S)-3-[4-(4-Bromophenyl)-1,3-thiazol-2-yl]-4-(fluoromethyl)-1,3-oxazolidin-2-one] registered a melting point of 148 to 150 °C. In data set [1], this molecule displayed a Ki of 0.0315 µM. Moreover, in data set [2], the 50% inhibitory concentration (IC50) amounted to 21.4 nM.

On to `CC[C@H]1COC(=O)N1c1nc(-c2ccc(Br)cc2)cs1` [Example 7, (4S)-3-[4-(4-Bromophenyl)-1,3-thiazol-2-yl]-4-ethyl-1,3-oxazolidin-2-one], for which the melting point lay in the range of 138 to 140 °C. The Ki in data set [1] turned out to be 0.0753 µM. Besides, the half-inhibitory concentration (IC50) in data set [2] stood at 23 nM.

For the molecule `CCC1COC(=O)N1c1nc(-c2ccc(Br)cc2)cs1` (centres unmarked) [Example 49, 3-[4-(4-Bromophenyl)-1,3-thiazol-2-yl]-4-ethyl-1,3-oxazolidin-2-one], the melting point was found to be 148.5 °C. The molecule also registered a Ki in data set [1] of 0.068 µM. Besides, the IC50 in data set [2] was 39 nM.

In turn, `O=C1OCC2(CCC2)N1c1nc(-c2ccc(Br)cc2)cs1` [Example 26, 5-[4-(4-Bromophenyl)-1,3-thiazol-2-yl]-7-oxa-5-azaspiro[3.4]octan-6-one] had an inhibition constant (Ki) in data set [1] of 0.0918 µM. For the same molecule, the IC50 in data set [2] turned out to be 49.4 nM.

`N#Cc1ccc(-c2csc(N3C(=O)OC[C@@H]3C(F)(F)F)n2)cc1` [Example 66, 4-{2-[(4R)-2-oxo-4-(trifluoromethyl)-1,3-oxazolidin-3-yl]-1,3-thiazol-4-yl}benzonitrile] returned a melting point of 208 to 209 °C. This molecule registered a Ki in data set [1] of 0.212 µM. Besides, the IC50 in data set [2] was 482 nM.

Molecule `CC1COC(=O)N1c1nc(-c2ccc(Br)cc2)cs1` (centres unmarked) [Example 50, 3-[4-(4-Bromophenyl)-1,3-thiazol-2-yl]-4-methyl-1,3-oxazolidin-2-one] yielded a melting point of 189 to 190 °C. The affinity in data set [1] corresponds to a Ki of 0.0366 µM. The half-maximal inhibitory concentration (IC50) in data set [2] is 17.7 nM.

In turn, `CC1(C)COC(=O)N1c1nc(-c2ccc(Br)cc2)cs1` [Example 5, 3-[4-(4-Bromophenyl)-1,3-thiazol-2-yl]-4,4-dimethyl-1,3-oxazolidin-2-one] returned a melting point of 165 to 167 °C. This molecule also yielded a Ki in data set [1] of 0.0382 µM. Also, in data set [2], the concentration for half-maximal inhibition (IC50) was 6.4 nM.

Turning to `O=C1OC[C@@H](c2ccccc2)N1c1nc(-c2ccc(Br)cc2)cs1` [Example 35, (4R)-3-[4-(4-Bromophenyl)-1,3-thiazol-2-yl]-4-phenyl-1,3-oxazolidin-2-one], the melting point was 218 to 220 °C. Affinity in data set [1] was put at a Ki of 0.713 µM. Moreover, in data set [2], the half-maximal inhibitory concentration (IC50) stood at 204 nM.

Turning to `CC1COC(=O)N1c1nc(-c2ccc(C#N)cc2)cs1` (centres unmarked) [Example 51, 4-[2-(4-Methyl-2-oxo-1,3-oxazolidin-3-yl)-1,3-thiazol-4-yl]benzonitrile], the melting point was 215 to 216 °C. Besides, the Ki in data set [1] was 0.0426 µM. In addition, the IC50 in data set [2] is 16.1 nM.

Regarding `O=C1OCC(C(F)(F)F)N1c1nc(-c2ccc(Br)cc2)cs1` (centres unmarked) [Example 64, 3-[4-(4-Bromophenyl)-1,3-thiazol-2-yl]-4-(trifluoromethyl)-1,3-oxazolidin-2-one], the melting point is 154 to 156 °C. In data set [1], this molecule returned a Ki of 0.234 µM. For the same molecule, the IC50 in data set [2] was determined as 291 nM.

`CC1(C)COC(=O)N1c1nc(-c2ccc(C#N)c(F)c2)cs1` [Example 81, 4-[2-(4,4-Dimethyl-2-oxo-1,3-oxazolidin-3-yl)-1,3-thiazol-4-yl]-2-fluorobenzonitrile] registered an inhibition constant Ki in data set [1] of around 2 µM. For the same molecule, the IC50 in data set [2] came out at 2.3 nM.

Consider `CC1(C)COC(=O)N1c1nc(-c2ccc([N+](=O)[O-])cc2)cs1` [Example 80, 4,4-Dimethyl-3-[4-(4-nitrophenyl)-1,3-thiazol-2-yl]-1,3-oxazolidin-2-one], for which the Ki in data set [1] came out at 0.0345 µM. Further, the IC50 in data set [2] is 8.6 nM.

In data set [1], `CC1(C)COC(=O)N1c1nc(-c2ccc(C#N)cc2F)cs1` [Example 79, 4-[2-(4,4-Dimethyl-2-oxo-1,3-oxazolidin-3-yl)-1,3-thiazol-4-yl]-3-fluorobenzonitrile] came in with an inhibitory constant (Ki) of 0.17 µM. Moreover, in data set [2], the IC50 came out at 31.6 nM.

The molecule `O=C1OC[C@@H](CCl)N1c1nc(-c2ccc(Br)cc2)cs1` [Example 72, (4S)-3-[4-(4-Bromophenyl)-1,3-thiazol-2-yl]-4-(chloromethyl)-1,3-oxazolidin-2-one] gave a Ki in data set [1] of 0.02 µM. In data set [2], the IC50 came out at 5.4 nM.

Molecule `CC1(C)COC(=O)N1c1nc(-c2ccc(Br)cc2F)cs1` [Example 78, 3-[4-(4-Bromo-2-fluorophenyl)-1,3-thiazol-2-yl]-4,4-dimethyl-1,3-oxazolidin-2-one] returned a Ki in data set [1] of 0.0456 µM. The IC50 in data set [2] stood at 24.8 nM.

`CC1(C)COC(=O)N1c1nc(-c2ccc(C#N)cc2)cs1` [Example 6, 4-[2-(4,4-Dimethyl-2-oxo-1,3-oxazolidin-3-yl)-1,3-thiazol-4-yl]benzonitrile] returned a melting point of 183 to 185 °C. Moreover, the IC50 in data set [2] was 3.1 nM.

In the case of `CC1(C)COC(=O)N1c1nc(-c2ccc(C#N)s2)cs1` [Example 60, 5-[2-(4,4-dimethyl-2-oxo-1,3-oxazolidin-3-yl)-1,3-thiazol-4-yl]thiophene-2-carbonitrile], the melting point is 250 to 251 °C. Also, in data set [2], the concentration for half-maximal inhibition (IC50) was 43.5 nM.

`CC(C)C1COC(=O)N1c1nc(-c2ccc(C#N)cc2)cs1` (centres unmarked) [Example 43, 4-[2-(4-Isopropyl-2-oxo-1,3-oxazolidin-3-yl)-1,3-thiazol-4-yl]benzonitrile] yielded a melting point of 126 to 128 °C. Also, the IC50 in data set [2] turned out to be 21.9 nM.

The molecule `CC1OC(=O)N(c2nc(-c3ccc(C#N)cc3)cs2)C1(C)C` (centres unmarked) [Example 62, 4-[2-(4,4,5-Trimethyl-2-oxo-1,3-oxazolidin-3-yl)-1,3-thiazol-4-yl]benzonitrile] returned a melting point of 166 to 167 °C. Besides, the IC50 in data set [2] was determined as 1.8 nM.

With `CC1(C)OCC(=O)N1c1nc(-c2ccc(Br)cc2)cs1` [Example 77, 3-[4-(4-Bromophenyl)-1,3-thiazol-2-yl]-2,2-dimethyl-1,3-oxazolidin-4-one], the affinity in data set [1] corresponds to a Ki of 0.584 µM. Further, the IC50 in data set [2] worked out at 372 nM.

In general, inhibition refers to the change of the read-out against control, counted positive when it falls. Take `CC1(C)COC(=O)N1c1nc(-c2cccc(C#N)c2)cs1` [Example 52, 3-[2-(4,4-dimethyl-2-oxo-1,3-oxazolidin-3-yl)-1,3-thiazol-4-yl]benzonitrile]: the melting point lay in the range of 181 to 183 °C. Besides, the inhibition at 3 µM in data set [2] (% inhibition at 3000 nM) amounted to 95%.

For `CCC[C@@H]1COC(=O)N1c1nc(-c2ccc(C#N)cc2)cs1` [Example 21, 4-{2-[(4R)-2-oxo-4-propyl-1,3-oxazolidin-3-yl]-1,3-thiazol-4-yl}benzonitrile], the melting point lay within 131 to 133 °C. Moreover, the IC50 in data set [2] was 22.5 nM.
